For one molecule, IC50 results are on record in US9126999B2, “Tetrahydropyrazolopyrimidine compounds” (EISAI R&D MANAGEMENT CO., LTD., priority 2012, dated 2015).

In general, IC50 refers to the midpoint of a concentration-inhibition curve. Lower therefore signals inhibition by little substance.

One test deals with T1, Human TLR7 (Homo sapiens, UniProt Q9NYK1).
T1 construct: engineered to stably and individually express human TLR4, TLR7 or TLR9 full-length ORF cDNAs; host or cells: HEK-293 (ATCC) with ELAM-1 NF-kappaB luciferase reporter
T1 sequence (Q9NYK1 27-1049): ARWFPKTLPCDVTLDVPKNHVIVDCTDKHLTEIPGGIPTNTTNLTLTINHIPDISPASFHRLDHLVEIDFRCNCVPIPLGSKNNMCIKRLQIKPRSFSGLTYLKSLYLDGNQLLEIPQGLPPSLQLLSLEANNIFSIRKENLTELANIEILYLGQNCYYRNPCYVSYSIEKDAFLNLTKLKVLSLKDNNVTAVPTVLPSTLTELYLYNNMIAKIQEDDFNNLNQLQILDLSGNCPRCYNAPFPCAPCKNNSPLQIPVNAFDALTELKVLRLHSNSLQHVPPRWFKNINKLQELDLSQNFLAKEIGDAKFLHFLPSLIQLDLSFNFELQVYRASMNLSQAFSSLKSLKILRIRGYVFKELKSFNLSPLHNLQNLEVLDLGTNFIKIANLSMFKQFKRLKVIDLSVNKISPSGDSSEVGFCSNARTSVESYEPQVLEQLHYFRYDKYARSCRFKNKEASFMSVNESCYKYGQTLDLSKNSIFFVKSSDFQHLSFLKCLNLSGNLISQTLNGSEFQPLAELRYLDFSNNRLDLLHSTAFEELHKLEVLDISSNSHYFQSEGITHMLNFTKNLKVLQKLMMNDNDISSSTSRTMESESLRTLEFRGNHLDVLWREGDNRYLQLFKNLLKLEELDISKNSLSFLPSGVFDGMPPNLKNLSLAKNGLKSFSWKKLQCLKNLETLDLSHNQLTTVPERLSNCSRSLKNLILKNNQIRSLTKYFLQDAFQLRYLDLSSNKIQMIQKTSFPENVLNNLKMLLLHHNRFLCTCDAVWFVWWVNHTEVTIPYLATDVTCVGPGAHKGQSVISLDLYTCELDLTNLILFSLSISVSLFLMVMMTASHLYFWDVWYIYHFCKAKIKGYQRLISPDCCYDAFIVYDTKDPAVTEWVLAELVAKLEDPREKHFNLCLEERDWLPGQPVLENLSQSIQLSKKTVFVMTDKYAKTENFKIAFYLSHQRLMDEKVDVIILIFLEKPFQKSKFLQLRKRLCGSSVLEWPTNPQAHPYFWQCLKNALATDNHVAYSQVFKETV
Nature of the test: HEK-293 NF-kappaB luciferase reporter assay, CL097 stimulus. As to conditions: ligand CL097, analyte NFkB-luciferase. Type of test: cell-based. An excerpt:
(§1) In vitro pharmacology: HEK-293 cells (ATCC) were engineered to stably express a NF-kappaB transcription factor inducible E-selectin (ELAM-1) luciferase reporter derived from the plasmid pGL3 (Promega) containing base pairs −2241 bp to −254 bp from the promoter of the human E-selectin gene (Accession No. NM_000450). These cells were then subsequently engineered to stably and individually express human TLR4, TLR7 or TLR9 full-length ORF cDNAs. Human TLR4 cDNA (Accession No. NM_138554) was cloned into pcDNA 3.0 expression vector (Invitrogen). TLR4 transfected cells were also engineered to express human MD-2 co-receptor [MD-2 cDNA (Accession No. NM_015364) was cloned into the pEF-BOS vector] and were supplemented with 10 nM soluble CD14 (R&D Systems) in the media to optimize LPS responsiveness. Human TLR9 cDNA (Accession No. NM_017442) was cloned into the pBluescript II KS vector (Agilent). Human TLR7 cDNA (Accession No. NM_016562) was obtained from OriGene. HEK-293 cells stably expressing human TLR8 (Accession No. NM_138636) or mouse TLR7 (Accession No. NM_133211) were purchased from InvivoGen and were then stably transfected with pNiFty2(NF-kappaB)-luciferase reporter plasmid (InvivoGen). Each cell type was plated in Dulbecco's modified Eagle's medium (DMEM) containing 10% fetal bovine serum (FBS) at a density of 2.22×10^5 cells/ml into a 384-well plate and incubated for 2 days at 37° C., 5% CO2. Varying concentrations of antagonist compounds were then added. Cells were then incubated for another 30 minutes before adding the appropriate TLR agonist as follows (final concentrations indicated): lipopolysaccharide (LPS; Sigma) at 10 ng/ml for TLR4, CL097 (InvivoGen) at 3 ug/ml for human TLR7 and TLR8 and mouse TLR7, and CpG-2006-2A [sequence: […] (SEQ ID NO: 1) with phosphorothioate backbone, synthesized by Sigma-Aldrich] at 0.6 uM for TLR9.
On the technique in general: Reporter assays use an easily measured gene product as a stand-in for the process of interest.

In a further test the target is T2, Mouse TLR7 (Mus musculus, UniProt P58681).
T2 construct: endogenous in cells; host or cells: female BALB/c mice, in vivo
T2 sequence (P58681 27-1050): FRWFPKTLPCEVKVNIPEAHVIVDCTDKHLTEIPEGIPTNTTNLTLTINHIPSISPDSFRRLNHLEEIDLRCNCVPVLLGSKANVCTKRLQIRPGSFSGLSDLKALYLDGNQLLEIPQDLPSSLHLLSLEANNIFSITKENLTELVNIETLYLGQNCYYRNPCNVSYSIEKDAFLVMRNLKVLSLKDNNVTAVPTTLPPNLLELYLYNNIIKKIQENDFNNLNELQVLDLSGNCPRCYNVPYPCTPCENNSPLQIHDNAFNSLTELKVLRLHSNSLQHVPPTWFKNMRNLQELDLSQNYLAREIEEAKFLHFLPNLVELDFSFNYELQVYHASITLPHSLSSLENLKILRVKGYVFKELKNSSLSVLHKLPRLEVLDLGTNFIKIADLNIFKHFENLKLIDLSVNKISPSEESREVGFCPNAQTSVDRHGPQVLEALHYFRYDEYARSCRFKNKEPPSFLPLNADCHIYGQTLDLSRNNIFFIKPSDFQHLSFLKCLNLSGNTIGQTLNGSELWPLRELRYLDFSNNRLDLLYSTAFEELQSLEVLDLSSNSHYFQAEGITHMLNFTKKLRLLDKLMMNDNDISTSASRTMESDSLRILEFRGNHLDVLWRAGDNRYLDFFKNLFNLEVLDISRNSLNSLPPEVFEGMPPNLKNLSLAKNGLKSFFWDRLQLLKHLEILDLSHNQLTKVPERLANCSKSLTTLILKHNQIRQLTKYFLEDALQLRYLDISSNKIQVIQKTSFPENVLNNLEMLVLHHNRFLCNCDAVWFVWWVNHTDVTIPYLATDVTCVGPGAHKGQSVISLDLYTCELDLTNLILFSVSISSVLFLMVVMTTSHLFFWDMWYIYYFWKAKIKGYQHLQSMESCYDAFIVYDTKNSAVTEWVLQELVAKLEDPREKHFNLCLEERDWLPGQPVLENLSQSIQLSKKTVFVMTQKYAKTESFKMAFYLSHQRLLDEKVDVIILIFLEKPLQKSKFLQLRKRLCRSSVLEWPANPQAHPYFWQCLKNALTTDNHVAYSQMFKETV
The description is as above. In kind it is cell-based. As to conditions: ligand CL097, analyte NFkB-luciferase.
Source text: as §1

Regarding `COc1ccc([C@@H]2C[C@H](C(F)(F)F)n3nc(-c4ccc(C(=O)N5CCNCC5)cc4)cc3N2)cc1OC` [ER-892887, (4-((5S,7R)-5-(3,4-dimethoxyphenyl)-7-(trifluoromethyl)-4,5,6,7-tetrahydropyrazolo[1,5-a]pyrimidin-2-yl)phenyl)(piperazin-1-yl)methanone], the IC50 against Human TLR7 is 0.01 µM; against Mouse TLR7, 0.276 µM.
